# Results as given in patent US20250084078A1, “FUSED RING-SUBSTITUTED SIX-MEMBERED HETEROCYCLIC COMPOUND, AND PREPARATION METHOD THEREFOR AND USE THEREOF” (GENFLEFT THERAPEUTICS (SHANGHAI) INC., priority 2022, published 2025).
# pIC50: −log10 of the molar value.
# Molecular target: HPK1 (Homo sapiens, UniProt Q92918)
# Assay: SLP76 phosphorylation assay (intracellular HPK1 inhibitory activity, p-SLP76 S376 ELISA in Jurkat cells)
# Conditions: p-SLP76 IC50, Jurkat, Clone E6-1 cells; 1 h compound pre-incubation; anti-CD3 beads stimulation 20 min; Phospho-SLP-76 (Ser376) ELISA
# HPK1, sequence (Q92918 whole entry): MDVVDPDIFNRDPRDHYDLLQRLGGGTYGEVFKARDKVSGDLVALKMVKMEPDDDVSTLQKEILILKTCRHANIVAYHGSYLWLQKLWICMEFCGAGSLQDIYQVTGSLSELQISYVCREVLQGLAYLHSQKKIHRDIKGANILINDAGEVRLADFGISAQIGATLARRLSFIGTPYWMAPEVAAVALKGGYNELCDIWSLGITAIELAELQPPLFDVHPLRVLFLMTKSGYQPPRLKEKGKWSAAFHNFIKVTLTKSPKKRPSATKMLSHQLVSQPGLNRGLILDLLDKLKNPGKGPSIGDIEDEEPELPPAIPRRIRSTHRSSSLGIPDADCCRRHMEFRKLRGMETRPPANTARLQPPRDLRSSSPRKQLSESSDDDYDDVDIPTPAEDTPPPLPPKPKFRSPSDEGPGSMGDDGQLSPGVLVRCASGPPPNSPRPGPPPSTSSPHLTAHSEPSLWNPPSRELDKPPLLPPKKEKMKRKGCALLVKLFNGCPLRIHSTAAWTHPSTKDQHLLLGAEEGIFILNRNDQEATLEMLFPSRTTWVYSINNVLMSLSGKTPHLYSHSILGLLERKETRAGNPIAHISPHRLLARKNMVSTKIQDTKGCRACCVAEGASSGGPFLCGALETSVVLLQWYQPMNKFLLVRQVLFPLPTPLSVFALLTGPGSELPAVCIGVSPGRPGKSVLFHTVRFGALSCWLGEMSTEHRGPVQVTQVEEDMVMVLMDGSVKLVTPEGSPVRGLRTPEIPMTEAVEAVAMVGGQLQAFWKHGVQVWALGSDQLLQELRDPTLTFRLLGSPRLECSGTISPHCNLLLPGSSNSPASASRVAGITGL
row,Compound,pIC50
1,Cc1c[nH]c2ncc(-c3cc4c(c([C@@H]5COCCN5)c3)CN(C(=O)N3C[C@@H]5C[C@H]3CO5)CC4)cc12 [Compound Z463],6.53
2,"O=C(C1CCOCC1)N1CCc2cc(-c3cnc4[nH]cc(Cl)c4c3)cc([C@@H]3COCCN3)c2C1 [Compound Z543, (R)-[6-(3-chloro-1H-pyrrolo[2,3-b]pyridin-5-yl)-8-(morpholin-3-yl)-3,4-dihydroisoquinolin-2(1H)-yl](tetrahydro-2H-pyran-4-yl)methanone]",6.63
3,"Cc1c[nH]c2ncc(-c3cc4c(c([C@@H]5COCCN5)c3)CN(C(=O)N3CCO[C@@H](C)C3)CC4)cc12 [Compound Z452, (6-(3-methyl-1H-pyrrolo[2,3-b]pyridin-5-yl)-8-((R)-morpholin-3-yl)-3,4-dihydroisoquinolin-2(1H)-yl)((S)-2-methylmorpholine)methanone]",6.62
4,"Cc1c[nH]c2ncc(-c3cc4c(c([C@@H]5COCCN5)c3)CN(C(=O)N3CCOCC3(C)C)CC4)cc12 [Compound Z479, (R)-(3,3-dimethylmorpholine)(6-(3-methyl-1H-pyrrolo[2,3-b]pyridin-5-yl)-8-(morpholin-3-yl)-3,4-dihydroisoquinolin-2(1H)-yl)methanone]",6.83
5,"CC1(C)COCCN1C(=O)N1CCc2cc(-c3cnc4[nH]cc(Cl)c4c3)cc([C@@H]3COCCN3)c2C1 [Compound Z503, (R)-(6-(3-chloro-1H-pyrrolo[2,3-b]pyridin-5-yl)-8-(morpholin-3-yl)-3,4-dihydroisoquinolin-2(1H)-yl)(3,3-dimethylmorpholino)methanone]",6.77
6,"C[C@@H]1CN(C(=O)N2CCc3cc(-c4cnc5[nH]cc(Cl)c5c4)cc([C@@H]4COCCN4)c3C2)CCO1 [Compound Z502, (6-(3-chloro-1H-pyrrolo[2,3-b]pyridin-5-yl)-8-((R)-morpholin-3-yl)-3,4-dihydroisoquinolin-2(1H)-yl)((R)-2-methylmorpholino)methanone]",6.77
7,"CS(=O)(=O)N1CCc2cc(-c3cnc4[nH]cc(Cl)c4c3)cc([C@@H]3COCCN3)c2C1 [Compound Z501, (R)-3-(6-(3-chloro-1H-pyrrolo[2,3-b]pyridin-5-yl)-2-(methylsulfonyl)-1,2,3,4-tetrahydroisoquinolin-8-yl)morpholine]",6.55
8,"Cc1c[nH]c2ncc(-c3cc4c(c([C@@H]5COCCN5)c3)CN(C(=O)N3CCOC(C)(C)C3)CC4)cc12 [Compound Z453, (R)-(2,2-dimethylmorpholine)(6-(3-methyl-1H-pyrrolo[2,3-b]pyridin-5-yl)-8-(morpholin-3-yl)-3,4-dihydroisoquinolin-2(1H)-yl)methanone]",6.83
9,"Cc1c[nH]c2ncc(-c3cc4c(c([C@@H]5COCCN5)c3)CN(C(=O)N3CCOC[C@H]3C)CC4)cc12 [Compound Z480, (6-(3-methyl-1H-pyrrolo[2,3-b]pyridin-5-yl)-8-((R)-morpholin-3-yl)-3,4-dihydroisoquinolin-2(1H)-yl)((R)-3-methylmorpholino)methanone]",6.93
10,"Cc1ncc(C(=O)N2CCc3cc(-c4cnc5[nH]cc(C)c5c4)cc([C@@H]4COCCN4)c3C2)cn1 [Compound Z468, (R)-(2-methylpyrimidin-5-yl)-[6-(3-methyl-1H-pyrrolo[2,3-b]pyridin-5-yl)-8-[morpholin-3-yl]-3,4-dihydroisoquinolin-2(1H)-yl]methanone]",6.47
11,"Cc1cc(-c2c[nH]c3ncc(-c4cc5c(c([C@@H]6COCCN6)c4)CN(C(=O)C(C)(C)O)CC5)cc23)c(C)cn1 [Compound Z545, (R)-1-(6-(3-(2,5-dimethylpyridin-4-yl)-1H-pyrrolo[2,3-b]pyridin-5-yl)-8-(morpholin-3-yl)-3,4-dihydroisoquinolin-2(1H)-yl)-2-hydroxy-2-methylpropan-1-one]",6.25
12,CN1CC2CCC(C1)N2C(=O)N1CCc2cc(-c3cnc4[nH]cc(Cl)c4c3)cc([C@@H]3COCCN3)c2C1 [Compound Z472],6.67
13,"Cc1c[nH]c2ncc(-c3cc4c(c([C@@H]5COCCN5)c3)CN(C(=O)N3CC5CC(C3)O5)CC4)cc12 [Compound Z516, (6-oxa-3-azabicyclo[3.1.1]heptan-3-yl)-(6-(3-methyl-1H-pyrrolo[2,3-b]pyridin-5-yl)-8((R)-morpholin-3-yl)-3,4-dihydroisoquinolin-2(1H)-yl)methanone]",6.79
14,"Cc1c(F)[nH]c2ncc(-c3cc4c(c([C@@H]5COCCN5)c3)CN(C(=O)C(C)(C)O)CC4)cc12 [Compound Z510, (R)-1-(6-(2-fluoro-3-methyl-1H-pyrrolo[2,3-b]pyridin-5-yl)-8-(morpholin-3-yl)-3,4-tetrahydroisoquinolin-2(1H)-yl)-2-hydroxy-2-methylpropan-1-one]",6.55

# Next, values leading:
row,pIC50,Compound
1,6.83,"Cc1c[nH]c2ncc(-c3cc4c(c([C@@H]5COCCN5)c3)CN(C(=O)N3CCOC5CC53)CC4)cc12 (stereo partly drawn) [Compound Z562, (2-oxa-5-azabicyclo[4.1.0]heptan-5-yl)(6-(3-methyl-1H-pyrrolo[2,3-b]pyridin-5-yl)-8-((R)-morpholin-3-yl)-3,4-dihydroisoquinolin-2(1H)-yl)methanone]"
2,6.61,"Cc1c[nH]c2ncc(-c3cc4c(c([C@@H]5COCCN5)c3)CN(C(=O)[C@H]3CCOC3)CC4)nc12 [Compound Z630, (6-(7-methyl-5H-pyrrolo[2,3-b]pyrazin-2-yl)-8-((R)-morpholin-3-yl)-3,4-dihydroisoquinolin-2(1H)-yl)((S)-tetrahydrofuran-3-yl)methanone]"
3,6.81,"CC1(C)CC(O)CN1C(=O)N1CCc2cc(-c3cnc4[nH]cc(Cl)c4n3)cc([C@@H]3COCCN3)c2C1 (stereo partly drawn) [Compound Z569, (6-(7-chloro-5H-pyrrolo[2,3-b]pyrazin-2-yl)-8-((R)-morpholin-3-yl)-3,4-dihydroisoquinolin-2(1H)-yl)(4-hydroxy-2,2-dimethylpyrrolidin-1-yl)methanone]"
4,6.32,"O=C(N1CCC(O)CC1)N1CCc2cc(-c3cnc4[nH]cc(Cl)c4c3)cc([C@@H]3COCCN3)c2C1 [Compound Z555, (R)-(6-(3-chloro-1H-pyrrolo[2,3-b]pyridin-5-yl)-8-(morpholin-3-yl)-3,4-dihydroisoquinolin-2(1H)-yl)(4-hydroxypiperidin-1-yl)methanone]"
5,6.02,"Cc1c[nH]c2ncc(-c3cc4c(c([C@@H]5COCCN5)c3)CN(C(=O)N3CCC(O)CC3)CC4)cc12 [Compound Z556, (R)-(4-hydroxypiperidin-1-yl)(6-(3-methyl-1H-pyrrolo[2,3-b]pyridin-5-yl)-8-(morpholin-3-yl)-3,4-dihydroisoquinolin-2(1H)-yl)methanone]"
6,6.08,"C#Cc1c[nH]c2ncc(-c3cc4c(c([C@@H]5COCCN5)c3)CN(C(=O)C(C)(C)O)CC4)cc12 [Compound Z594, (R)-1-(6-(3-ethynyl-1H-pyrrolo[2,3-b]pyridin-5-yl)-8-(morpholin-3-yl)-3,4-dihydroisoquinolin-2(1H)-yl)-2-hydroxy-2-methylpropan-1-one]"
